Assay results from ChEMBL document CHEMBL5729022, “Modulators of methyl modifying enzymes, compositions and uses thereof” (2022).

Test: Biochemical Assay: EZH2 biochemical assay (IC50): Compound potencies were assessed through incorporation of 3H-SAM into a biotinylated H3 peptide. Specifically, 30 pM PRC2 containing wt EZH2 (pentameric complex prepared in-house) was pre-incubated with 450 nM SAM, 450 nM 3H-SAM, 2 μM H3K27me3 activating peptide (H2N-RKQLATKAAR(Kme3)SAPATGGVKKP-amide) and compounds (as 10 point duplicate dose response titrations in DMSO, final assay 0.8% DMSO (v/v)) for 3-5 h in 50 mM Tris (pH 8.5), 1 mM DTT, 0.07 mM Brij-35, 0.1% BSA, and 0.8% DMSO in a total volume of 12.5 μl. Reaction was initiated with biotinylated H3 substrate peptide (H2N-RKQLATKAAR(Kmel)SAPATGGVKKP-NTPEGBiot) as a 2 μM stock in 12.5 μl of buffer and allowed to react at room temperature for 18-22 h. Quenching was accomplished by addition of 20 μl of STOP solution (50 mM Tris (pH 8.5), 200 mM EDTA, 2 mM SAH). 35 μl of the quenched solution was transferred to streptavidin coated FlashPlates (PerkinElmer), incubated 1-2 h, washed, and read in a TopCount Reader (PerkinElmer). IC50s were calculated in Genedata Screener using non-linear least square four parameter fits, where the four parameters were IC50, Hill slope, pre-transitional baseline (0% INH), and post-transitional baseline (100% INH).

## Cc1cc(Cl)c(CNC(=O)c2cc(Cl)c3c(c2C)OC(C)(C2CCN(CC(F)(F)F)CC2)O3)c(=O)[nH]1 (single isomer, unassigned)
  IC50: > 10 nM
